Tests used:
[1] = target: recombinant human ACC2 (rhACC2) (Homo sapiens (Human), UniProt O00763); assay: recombinant hACC2 Transcreener ADP detection FP assay; assay type: biochemical; details: 50 uM ATP, 50 min at 25° C.
Method: (§1) For example direct inhibition of ACC activity, for the compound of Formula (I) was determined using preparations of recombinant human ACC1 (rhACC1) and recombinant human ACC2 (rhACC2).
[3] Preparation of rhACC2. Human ACC2 inhibition was measured using purified recombinant human ACC2 (hrACC2). Briefly, a full length Cytomax clone of ACC2 was purchased from Cambridge Bioscience Limited and was sequenced and subcloned into PCDNA5 FRT TO-TOPO (Invitrogen, Carlsbad, Calif.). The ACC2 was expressed in CHO cells by tetracycline induction and harvested in 5 liters of DMEM/F12 with glutamine, biotin, hygromycin and blasticidin with 1 μg/mL tetracycline (Invitrogen, Carlsbad, Calif.). The conditioned medium containing ACC2 was then applied to a Softlink Soft Release Avidin column (Promega, Madison, Wis.) and eluted with 5 mM biotin. […] The purified ACC2 was dialyzed in 50 mM Tris, 200 mM NaCl, 4 mM DTT, 2 mM EDTA, and 5% glycerol. […] For measurement of ACC2 activity and assessment of ACC2 inhibition, test compounds were dissolved in DMSO and added to the rhACC2 enzyme as a 5× stock with a final DMSO concentration of 1%.
[4] Measurement of human ACC2 inhibition. hACC2 was assayed in a Costar #3676 (Costar, Cambridge, Mass.) 384-well plate using the Transcreener ADP detection FP assay kit (Bellbrook Labs, Madison, Wis.) using the manufacturer's recommended conditions for a 50 uM ATP reaction. The final conditions for the assay were 50 mM HEPES, pH 7.2, 5 mM MgCl2, 5 mM tripotassium citrate, 2 mM DTT, 0.1 mg/mL BSA, 30 μM acetyl-CoA, 50 μM ATP, and 8 mM KHCO3 Typically, a 10 μl reaction was run for 50 min at 25° C., and 10 μl of Transcreener stop and detect buffer was added and the combination incubated at room temp for an additional 1 hour. The data was acquired on an Envision Fluorescence reader (PerkinElmer) using a 620 excitation Cy5 FP general dual mirror, 620 excitation Cy5 FP filter, 688 emission (S) and a 688 (P) emission filter.

[2] = target: recombinant human ACC1 (rhACC1) (Homo sapiens (Human), UniProt Q13085); assay: recombinant hACC1 Transcreener ADP detection FP assay; assay type: biochemical; details: 50 μM ATP, 120 min at 25° C.
Method: as §1
[1] Preparation of rhACC1. Two liters of SF9 cells, infected with recombinant baculovirus containing full length human ACC1 cDNA, were suspended in ice-cold lysis buffer (25 mM Tris, pH 7.5; 150 mM NaCl; 10% glycerol; 5 mM imidazole (EMD Bioscience; Gibbstown, N.J.); 2 mM TCEP (BioVectra; Charlottetown, Canada); Benzonase nuclease (10000 U/100 g cell paste; Novagen; Madison, Wis.); EDTA-free protease inhibitor cocktail (1 tab/50 mL; Roche Diagnostics; Mannheim, Germany). Cells were lysed by 3 cycles of freeze-thaw and centrifuged at 40,000×g for 40 minutes (4° C.). Supernatant was directly loaded onto a HisTrap FF crude column (GE Healthcare; Piscataway, N.J.) and eluted with an imidazole gradient up to 0.5 M over 20 column volumes (CV). ACC1-containing fractions were pooled and diluted 1:5 with 25 mM Tris, pH 7.5, 2 mM TCEP, 10% glycerol and direct loaded onto a CaptoQ (GE Healthcare) column and eluted with an NaCl gradient up to 1 M over 20 CV's. Phosphate groups were removed from purified ACC1 by incubation with lambda phosphatase (100 U/10 μM target protein; New England Biolabs; Beverly, Mass.) for 14 hours at 4° C.; okadaic acid was added (1 μM final concentration; Roche Diagnostics) to inhibit the phosphatase. Purified ACC1 was exchanged into 25 mM Tris, pH 7.5, 2 mM TCEP, 10% glycerol, 0.5 M NaCl by 6 hour dialysis at 4° C. Aliquots were prepared and frozen at −80° C.
[2] Measurement of rhACC1 inhibition. hACC1 was assayed in a Costar #3676 (Costar, Cambridge, Mass.) 384-well plate using the Transcreener ADP detection FP assay kit (Bellbrook Labs, Madison, Wis.) using the manufacturer's recommended conditions for a 50 μM ATP reaction. The final conditions for the assay were 50 mM HEPES, pH 7.2, 10 mM MgCl2, 7.5 mM tripotassium citrate, 2 mM DTT, 0.1 mg/mL BSA, 30 μM acetyl-CoA, 50 μM ATP, and 10 mM KHCO3 Typically, a 10 μl reaction was run for 120 min at 25° C., and 10 μl of Transcreener stop and detect buffer was added and the combination incubated at room temp for an additional 1 hour. The data was acquired on a Envision Fluorescence reader (PerkinElmer) using a 620 excitation Cy5 FP general dual mirror, 620 excitation Cy5 FP filter, 688 emission (S) and a 688 (P) emission filter.

recombinant human ACC2 (rhACC2), sequence (O00763 whole entry V2141I): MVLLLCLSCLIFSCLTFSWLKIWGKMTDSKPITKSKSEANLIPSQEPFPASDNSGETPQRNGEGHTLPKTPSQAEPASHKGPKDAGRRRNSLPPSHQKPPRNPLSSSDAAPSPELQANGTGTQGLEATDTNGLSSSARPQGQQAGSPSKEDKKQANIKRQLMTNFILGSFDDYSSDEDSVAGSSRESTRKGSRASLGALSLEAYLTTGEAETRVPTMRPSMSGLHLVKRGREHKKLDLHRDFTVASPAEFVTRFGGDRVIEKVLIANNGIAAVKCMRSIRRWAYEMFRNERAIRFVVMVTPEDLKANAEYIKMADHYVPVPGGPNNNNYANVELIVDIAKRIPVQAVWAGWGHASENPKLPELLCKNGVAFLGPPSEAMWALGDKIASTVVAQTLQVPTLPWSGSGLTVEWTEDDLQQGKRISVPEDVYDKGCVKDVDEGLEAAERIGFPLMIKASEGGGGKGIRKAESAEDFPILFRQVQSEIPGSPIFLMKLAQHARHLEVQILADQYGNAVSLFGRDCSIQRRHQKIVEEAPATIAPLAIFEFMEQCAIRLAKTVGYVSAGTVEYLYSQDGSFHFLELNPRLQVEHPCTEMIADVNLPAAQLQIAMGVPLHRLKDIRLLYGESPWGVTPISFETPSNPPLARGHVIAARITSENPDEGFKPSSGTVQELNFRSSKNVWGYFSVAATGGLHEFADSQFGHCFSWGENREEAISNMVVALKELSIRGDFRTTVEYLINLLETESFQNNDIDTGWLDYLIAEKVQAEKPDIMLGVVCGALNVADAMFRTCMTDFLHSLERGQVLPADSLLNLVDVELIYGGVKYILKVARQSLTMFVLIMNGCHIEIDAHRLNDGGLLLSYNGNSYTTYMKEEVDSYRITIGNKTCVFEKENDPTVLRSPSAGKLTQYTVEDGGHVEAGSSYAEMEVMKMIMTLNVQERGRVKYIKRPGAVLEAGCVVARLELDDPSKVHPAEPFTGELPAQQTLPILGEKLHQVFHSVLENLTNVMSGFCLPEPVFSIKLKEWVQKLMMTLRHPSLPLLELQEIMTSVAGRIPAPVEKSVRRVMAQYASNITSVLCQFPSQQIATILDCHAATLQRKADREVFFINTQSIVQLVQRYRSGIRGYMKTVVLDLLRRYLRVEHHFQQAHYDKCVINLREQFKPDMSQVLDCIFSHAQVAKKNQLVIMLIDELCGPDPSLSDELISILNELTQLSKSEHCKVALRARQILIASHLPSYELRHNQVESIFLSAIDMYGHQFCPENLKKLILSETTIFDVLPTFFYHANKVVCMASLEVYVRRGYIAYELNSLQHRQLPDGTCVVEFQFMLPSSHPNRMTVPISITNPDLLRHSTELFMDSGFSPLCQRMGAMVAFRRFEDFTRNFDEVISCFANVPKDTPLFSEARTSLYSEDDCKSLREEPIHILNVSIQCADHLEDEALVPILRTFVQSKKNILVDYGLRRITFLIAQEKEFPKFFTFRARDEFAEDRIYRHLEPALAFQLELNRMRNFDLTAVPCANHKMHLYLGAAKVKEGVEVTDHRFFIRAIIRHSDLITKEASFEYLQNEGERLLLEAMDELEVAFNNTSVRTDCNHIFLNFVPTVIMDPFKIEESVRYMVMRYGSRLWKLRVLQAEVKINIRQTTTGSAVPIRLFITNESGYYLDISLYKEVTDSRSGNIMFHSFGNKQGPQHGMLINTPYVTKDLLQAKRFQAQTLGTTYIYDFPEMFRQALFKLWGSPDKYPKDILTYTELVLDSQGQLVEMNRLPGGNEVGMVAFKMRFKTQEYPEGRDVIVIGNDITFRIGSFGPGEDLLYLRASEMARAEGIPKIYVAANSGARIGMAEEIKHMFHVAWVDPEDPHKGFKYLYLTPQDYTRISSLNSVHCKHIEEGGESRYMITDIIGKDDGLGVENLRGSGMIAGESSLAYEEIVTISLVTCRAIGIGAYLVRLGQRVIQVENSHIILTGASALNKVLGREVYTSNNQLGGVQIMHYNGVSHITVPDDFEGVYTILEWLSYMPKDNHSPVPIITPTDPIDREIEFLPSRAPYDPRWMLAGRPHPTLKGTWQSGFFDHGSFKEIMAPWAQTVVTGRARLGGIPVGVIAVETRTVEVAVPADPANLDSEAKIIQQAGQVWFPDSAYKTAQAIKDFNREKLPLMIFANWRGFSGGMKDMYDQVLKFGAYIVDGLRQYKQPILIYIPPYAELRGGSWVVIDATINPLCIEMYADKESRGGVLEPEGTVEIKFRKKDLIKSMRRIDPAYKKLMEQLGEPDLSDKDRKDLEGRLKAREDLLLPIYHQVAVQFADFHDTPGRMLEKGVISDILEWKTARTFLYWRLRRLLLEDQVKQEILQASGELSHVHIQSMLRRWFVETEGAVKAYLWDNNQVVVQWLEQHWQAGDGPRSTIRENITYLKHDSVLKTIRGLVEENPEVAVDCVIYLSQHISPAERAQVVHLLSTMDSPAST

| SMILES | IC50 [1] | IC50 [2] |
| --- | --- | --- |
| CC(C)(C)n1cc2c(n1)C(=O)NC1(CCN(C(=O)c3ccc4c(N)nccc4c3)CC1)C2 [Example 101, 1-(1-aminoisoquinoline-6-carbonyl)-2′-tert-butyl-4′,6′-dihydrospiro[piperidine-4,5′-pyrazolo[3,4-c]pyridin]-7′(2′H)-one] | 26 nM | 160 nM |
| CN(C)c1nccc2ccc(C(=O)N3CCC4(CC3)Cc3cn(C(C)(C)C)nc3C(=O)N4)cc12 [Example 103, 2′-tert-butyl-1-(1-(dimethylamino)isoquinoline-7-carbonyl)-4′,6′-dihydrospiro[piperidine-4,5′-pyrazolo[3,4-c]pyridin]-7′(2′H)-one] | 8.9 nM | 73 nM |
| CC(C)(C)n1cc2c(n1)C(=O)NC1(CCN(C(=O)c3ccc4ccc(Cl)nc4c3)CC1)C2 [Example 104, 2′-tert-butyl-1-(2-chloroquinoline-7-carbonyl)-4′,6′-dihydrospiro[piperidine-4,5′-pyrazolo[3,4-c]pyridin]-7′(2′H)-one] | 16 nM | 89 nM |
| CC(C)(C)n1cc2c(n1)C(=O)NC1(CCN(C(=O)c3ccc4ccc(NC5COC5)nc4c3)CC1)C2 [Example 113] | 44 nM | 507 nM |
| Cc1n[nH]c2c(C)cc(C(=O)N3C4CCC3CC3(Cc5cn(C(C)(C)C)nc5C(=O)N3)C4)cc12 (centres unmarked) [Example 114] | 612 nM | 4820 nM |
| CC(C)Nc1nccc2ccc(C(=O)N3CCC4(CC3)Cc3cn(C(C)(C)C)nc3C(=O)N4)cc12 [Example 116] | 4.7 nM | 20 nM |
| CCN(C)c1nccc2ccc(C(=O)N3CCC4(CC3)Cc3cn(C(C)(C)C)nc3C(=O)N4)cc12 [Example 117] | 54 nM | 332 nM |
| COCCNc1nccc2ccc(C(=O)N3CCC4(CC3)Cc3cn(C(C)(C)C)nc3C(=O)N4)cc12 [Example 120] | 6.1 nM | 47 nM |
| CC(C)(C)n1cc2c(n1)C(=O)NC1(CCN(C(=O)c3ccc4ccnc(NC5COC5)c4c3)CC1)C2 [Example 122] | 77 nM | 494 nM |
| CC(C)(C)Nc1nccc2ccc(C(=O)N3CCC4(CC3)Cc3cn(C(C)(C)C)nc3C(=O)N4)cc12 [Example 123, 2′-(tert-butyl)-1-(1-(tert-butylamino)isoquinoline-7-carbonyl)-4′,6′-dihydrospiro[piperidine-4,5′-pyrazolo[3,4-c]pyridin]-7′(2′H)-one] | 6.3 nM | 78 nM |

Molecules with a lower IC50 [1], results first:

| IC50 [1] | IC50 [2] | SMILES |
| --- | --- | --- |
| 2.6 nM | 7.5 nM | CC(C)(C)n1cc2c(n1)C(=O)NC1(CCN(C(=O)c3ccc4ccc(NC5CC5)nc4c3)CC1)C2 [Example 106] |
| 2.2 nM | 6.1 nM | CC(C)Nc1ccc2ccc(C(=O)N3CCC4(CC3)Cc3cn(C(C)(C)C)nc3C(=O)N4)cc2n1 [Example 107] |
| 2.4 nM | 15 nM | CCN(C)c1ccc2ccc(C(=O)N3CCC4(CC3)Cc3cn(C(C)(C)C)nc3C(=O)N4)cc2n1 [Example 108] |
| 1 nM | 3.4 nM | CC(C)(C)n1cc2c(n1)C(=O)NC1(CCN(C(=O)c3ccc4ccc(NC5CCC5)nc4c3)CC1)C2 [Example 109] |
| 3.3 nM | 27 nM | COCCNc1ccc2ccc(C(=O)N3CCC4(CC3)Cc3cn(C(C)(C)C)nc3C(=O)N4)cc2n1 [Example 111] |
| 1.8 nM | 8.9 nM | CCNc1ccc2ccc(C(=O)N3CCC4(CC3)Cc3cn(C(C)(C)C)nc3C(=O)N4)cc2n1 [Example 112] |
| 2.9 nM | 29 nM | CC(C)(C)n1cc2c(n1)C(=O)NC1(CCN(C(=O)c3ccc4ccnc(NC5CC5)c4c3)CC1)C2 [Example 115] |
| 2.7 nM | 17 nM | CC(C)(C)n1cc2c(n1)C(=O)NC1(CCN(C(=O)c3ccc4ccnc(NC5CCC5)c4c3)CC1)C2 [Example 118] |
| 2.5 nM | 24 nM | CCCNc1nccc2ccc(C(=O)N3CCC4(CC3)Cc3cn(C(C)(C)C)nc3C(=O)N4)cc12 [Example 119] |
| 2.7 nM | 17 nM | CCNc1nccc2ccc(C(=O)N3CCC4(CC3)Cc3cn(C(C)(C)C)nc3C(=O)N4)cc12 [Example 121] |
| 1.72 nM | 6.5 nM | CC(C)(C)n1cc2c(n1)C(=O)NC1(CCN(C(=O)c3ccc4ccc(NCC(F)(F)F)nc4c3)CC1)C2 [Example 124] |
| 1.7 nM | 9 nM | CC(F)(F)CNc1ccc2ccc(C(=O)N3CCC4(CC3)Cc3cn(C(C)(C)C)nc3C(=O)N4)cc2n1 [Example 125] |
